Measured values from publication PMC9127750, “Structure-based design of CDC42 effector interaction inhibitors for the treatment of cancer” (Cell reports, 2022).
“And” between values parts separate entries of the source, which are not always exact repeats. Identical values can stand only once.

System: WM3248 melanoma cells, 486 antibodies
Experiment: Reverse phase protein arrays (RPPA);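 for CA9.R.C RPPA level: ratio of treated to vehicle (0 µM) normalized linear protein signal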;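 for CD171.M.V RPPA level: ratio of treated to vehicle (0 µM) normalized linear protein signal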;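 for CREB pS133.R.C RPPA level: ratio of treated to vehicle (0 µM) normalized linear protein signal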;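 for Cyclin.B1.R.V RPPA level: ratio of treated to vehicle (0 µM) normalized linear protein signal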
Assay type: cell-based, Human
Details: 20 uM
Source text: Pellets were snap frozen in liquid nitrogen and shipped to MD Anderson Cancer Center core RPPA facility for RPPA analysis (Table S5). Three biological replicates for each sample were generated.
Nomenclatures on the RPPA heatmaps: name_of_antibody.species_of_antibody.status_of_antibody. V - antibody validated; C - validation of antibody in progress; Q - antibody nonspecific; E – under evaluation; antibodies raised in M - mouse, G - goat, R - rabbit, or T - rat.

CN(C)c1cccc(Nc2cc(-c3ccccc3)nc(C3CCNCC3)n2)c1 [ARN22089, N1,N1-dimethyl-N3-(6-phenyl-2-(piperidin-4-yl)pyrimidin-4-yl)benzene-1,3-diamine]
RPPA signal, antibody UQCRC2.M.C (individual replicates): 0.993 and 0.916 and 0.753 | RPPA signal, antibody UVRAG.R.C (individual replicates): 0.916 and 1.111 and 1.110 | RPPA signal, antibody VASP.R.V (individual replicates): 1.010 and 0.872 and 0.975 | RPPA signal, antibody VAV1.R.C (individual replicates): 0.958 and 1.058 and 1.057 | RPPA signal, antibody VEGFR.2.R.V (individual replicates): 0.883 and 0.823 and 1.079 | RPPA signal, antibody VEGFR.2_pY1175.R.C (individual replicates): 1.118 and 0.976 | RPPA signal, antibody VHL.EPPK1.M.C (individual replicates): 1.005 and 1.203 and 0.853 | RPPA signal, antibody VHL.R.C (individual replicates): 0.953 and 0.849 | RPPA signal, antibody Vinculin.M.V (individual replicates): 0.888 and 0.854 and 0.998 | RPPA signal, antibody WIPI1.R.C (individual replicates): 1.160 and 1.238 and 1.145 | RPPA signal, antibody WIPI2.R.C (individual replicates): 1.015 and 1.158 and 1.252 | RPPA signal, antibody WTAP.R.V (individual replicates): 1.419 and 1.174 and 0.998 | RPPA signal, antibody Wee1.R.C (individual replicates): 0.776 and 1.131 and 1.126 | RPPA signal, antibody Wee1_pS642.R.C (individual replicates): 0.845 and 1.173 and 1.116 | RPPA signal, antibody XBP.1.G.C (individual replicates): 0.989 and 0.988 | RPPA signal, antibody XIAP.R.C (individual replicates): 0.944 and 0.910 and 1.125 | RPPA signal, antibody XPA.M.V (individual replicates): 0.967 and 1.026 | RPPA signal, antibody XPF.R.C (individual replicates): 0.937 and 0.898 and 1.023 | RPPA signal, antibody XRCC1.R.C (individual replicates): 1.008 and 1.026 | RPPA signal, antibody YAP.R.C (individual replicates): 1.004 and 1.030 and 0.945 | RPPA signal, antibody YAP_pS127.R.V (individual replicates): 1.152 and 0.978 and 0.976 | RPPA signal, antibody YB1_pS102.R.V (individual replicates): 1.029 and 0.913 and 1.102 | RPPA signal, antibody YES1.R.V (individual replicates): 1.048 and 0.896 and 0.978 | RPPA signal, antibody YTHDF2.R.V (individual replicates): 1.166 and 0.983 and 0.917 | RPPA signal, antibody YTHDF3.R.C (individual replicates): 0.960 and 0.870 | RPPA signal, antibody ZAP.70.R.V (individual replicates): 0.979 and 0.883 and 0.925 | RPPA signal, antibody ZEB1.R.V (individual replicates): 1.076 and 1.001 (2×) | C.Raf.R.C RPPA level (replicates): 0.876 and 1.165 and 1.143 | C.Raf_pS338.R.V RPPA level (replicates): 0.991 and 1.112 and 1.160 | CA9.R.C RPPA level (replicates): 0.919 and 0.861 and 0.996 | CD2.M.C RPPA level (replicates): 0.941 and 0.909 and 0.958 | CD4.R.V RPPA level (replicates): 0.942 and 0.993 and 1.083 | CD5.M.C RPPA level (replicates): 0.997 and 0.956 and 0.945 | CD20.R.C RPPA level (replicates): 1.250 and 0.955 | CD26.R.V RPPA level (replicates): 1.005 and 0.958 and 1.161 | CD29.M.V RPPA level (replicates): 0.953 and 0.914 and 0.985 | CD31.M.V RPPA level (replicates): 0.978 and 0.997 and 0.990 | CD38.R.C RPPA level (replicates): 0.979 and 1.221 and 1.194 | CD44.R.C RPPA level (replicates): 1.115 and 0.966 | CD45.M.V RPPA level (replicates): 0.921 and 0.967 and 0.985 | CD49b.M.V RPPA level (replicates): 0.971 and 0.954 | CD68.M.C RPPA level (replicates): 1.009 and 1.025 and 0.962 | CD74.M.V RPPA level (replicates): 1.011 and 1.026 and 0.956 | CD134.R.V RPPA level (replicates): 0.989 and 0.997 and 0.996 | CD171.M.V RPPA level (replicates): 0.680 and 0.817 and 0.790 | CDK1_pT14.R.C RPPA level (replicates): 1.334 and 0.655 | CDK9.R.V RPPA level (replicates): 1.161 and 0.839 and 0.893 | CDKN2A.R.C RPPA level (replicates): 0.966 and 1.130 and 0.976 | CDT1.R.V RPPA level (replicates): 0.905 and 0.934 | CENP.A.R.V RPPA level (replicates): 2.651 and 0.953 | CHD1L.R.V RPPA level (replicates): 0.935 and 0.987 and 0.941 | CIITA.R.C RPPA level (replicates): 1.013 and 1.020 and 0.972 | COG3.R.V RPPA level (replicates): 0.941 and 1.097 and 1.256 | CRABP1.R.C RPPA level (replicates): 1.019 and 1.064 and 0.991 | CRABP2.R.V RPPA level (replicates): 0.965 and 1.085 and 0.882 | CREB_pS133.R.C RPPA level (replicates): 0.965 and 1.585 and 1.260 | CSK.R.C RPPA level (replicates): 0.871 and 1.022 | Calnexin.R.V RPPA level (replicates): 0.849 and 0.983 | Caspase.3.cleaved.R.C RPPA level (replicates): 0.952 and 1.128 and 1.028 | Caspase.7.cleaved..R.C RPPA level (replicates): 1.007 and 0.873 and 1.064 | Caspase.8.M.Q RPPA level (replicates): 1.015 and 0.943 and 0.830 | Caspase.8.cleaved.R.C RPPA level (replicates): 0.945 | Caveolin.1.R.V RPPA level (replicates): 0.593 and 0.774 and 1.160 | Cdc6.R.V RPPA level (replicates): 1.141 and 0.773 and 0.673 | Cdc42.R.C RPPA level (replicates): 0.928 and 1.027 and 1.096 | Chk1.M.C RPPA level (replicates): 0.847 and 0.982 | Chk1_pS296.R.V RPPA level (replicates): 0.942 and 1.163 and 1.155 | Chk1_pS345.R.C RPPA level (replicates): 1.030 and 1.165 and 1.125 | Chk2.M.V RPPA level (replicates): 0.868 and 0.876 and 0.992 | Chk2_pT68.R.C RPPA level (replicates): 0.919 and 1.631 and 1.172 | Claudin.7.R.V RPPA level (replicates): 0.970 and 1.594 and 0.965 | Collagen.VI.R.V RPPA level (replicates): 1.150 and 0.775 and 0.928 | Complex.II.Subunit.M.V RPPA level (replicates): 0.977 and 0.871 and 0.988 | Connexin.43.R.C RPPA level (replicates): 0.961 and 1.203 and 1.101 | Coup.TFII.R.C RPPA level (replicates): 0.854 and 0.942 and 1.027 | Cox2.R.C RPPA level (replicates): 1.254 and 0.972 and 1.574 | Cox.IV.R.V RPPA level (replicates): 1.125 and 0.898 and 0.967 | Creb.R.C RPPA level (replicates): 1.005 and 1.024 and 1.173 | CtIP.R.V RPPA level (replicates): 0.804 and 0.988 and 1.058 | Cyclin.B1.R.V RPPA level (replicates): 1.623 and 0.503 and 1.275 | Cyclin.D1.R.C RPPA level (replicates): 1.131 and 1.034 and 0.955
